Experimental data reported in patent US5260300A, “Rapamycin carbonate esters as immuno-suppressant agents” (American Home Products Corporation, priority 1992, dated 1993).
Several values for one entry are separate records, joined by “and”; a condition that tells them apart may be missing. Equal entries are not always repeated. Where two headings read alike, the source gives them in different places.

Assays:
[1] = system: cells from the thymus of normal BALB/c mice (lymphocyte proliferation); assay: LAF assay: comitogen-induced thymocyte proliferation (inhibition of lymphocyte proliferation); assay type: cell-based
Procedure: Immunosuppressive activity was determined in an in vitro standard pharmacological test to measure lymphocyte proliferation (LAF). […] Thus in this assay, the invention compounds have LAF activity equal or greater than rapamycin and would therefore be expected to posses the immunological properties of rapamycin and be useful in the treatment of transplantation rejection and autoimmune diseases such as lupus, rheumatoid arthritis, diabetes mellitus, multiple sclerosis, psoriasis and the like. Because of the structural similarity of the invention compounds with rapamycin and other analogs having antifungal activity against several strains of Candida albicans, the compounds of this invention would also be expected to have antifungal properties. Similarly, the compounds of this invention would be expected to have antiinflammatory activity.
The comitogen-induced thymocyte proliferation procedure (LAF) was used as an in vitro measure of the immunosuppressive effects of representative compounds. Briefly, cells from the thymus of normal BALB/c mice are cultured for 72 hours with PHA and IL-1 and pulsed with tritiated thymidine during the last six hours. Cells are cultured with and without various concentrations of rapamycin, cyclosporin A, or test compound. Cells are harvested and incorporated; radioactivity is determined. Inhibition of lymphoproliferation is assessed in percent change in counts per minute from non-drug treated controls. The results are expressed by the following ratio, or as the percent inhibition of lymphoproliferation at a concentration of 1 μM or as the IC50. [formula]

[2] = cited from earlier work
[3] = system: tumor; conditions: alone or in combination with picibanil; cited from earlier work
[4] = system: Candida albicans; conditions: particularly against Candida albicans; cited from earlier work
[5] = system: IgE-like antibodies; conditions: in vivo; cited from earlier work
[6] = in vivo; cited from earlier work
[7] = system: Candida albicans; conditions: particularly against Candida albicans; cited from earlier work; remark: listed apart in the source
[8] = in vivo; cited from earlier work; remark: listed apart in the source
[9] = Mus musculus, Lymphocyte, 72 h, Table I, 72 hours culture with PHA and IL-1, read-out: IC50 Ester (IC50 data for LAF assay)

SMILES: COC(=O)O[C@@H]1/C(C)=C/[C@@H](C)C(=O)C[C@@H]([C@H](C)C[C@@H]2CC[C@@H](OC(=O)OC)[C@H](OC)C2)OC(=O)[C@@H]2CCCCN2C(=O)C(=O)[C@]2(O)O[C@@H](CC[C@H]2C)C[C@H](OC)/C(C)=C/C=C/C=C/[C@@H](C)C[C@@H](C)C(=O)[C@@H]1OC [Example 1A, 31, 42-O-Bis(methoxycarbonyl)rapamycin]
- IC50 [1, 9]: 0.87 nM

SMILES: COC(=O)O[C@@H]1CC[C@@H](C[C@@H](C)[C@@H]2CC(=O)[C@H](C)/C=C(\C)[C@@H](O)[C@@H](OC)C(=O)[C@H](C)C[C@H](C)/C=C/C=C/C=C(\C)[C@@H](OC)C[C@@H]3CC[C@@H](C)[C@@](O)(O3)C(=O)C(=O)N3CCCC[C@H]3C(=O)O2)C[C@H]1OC [Example 1B, 42-O-Methoxycarbonylrapamycin]
- IC50 [1, 9]: 2.5 nM

SMILES: CCOC(=O)O[C@@H]1/C(C)=C/[C@@H](C)C(=O)C[C@@H]([C@H](C)C[C@@H]2CC[C@@H](OC(=O)OCC)[C@H](OC)C2)OC(=O)[C@@H]2CCCCN2C(=O)C(=O)[C@]2(O)O[C@@H](CC[C@H]2C)C[C@H](OC)/C(C)=C/C=C/C=C/[C@@H](C)C[C@@H](C)C(=O)[C@@H]1OC [Example 2A, 31, 42-O-Bis(ethoxycarbonyl)rapamycin]
- IC50 [1, 9]: 2 nM

SMILES: CCOC(=O)O[C@@H]1CC[C@@H](C[C@@H](C)[C@@H]2CC(=O)[C@H](C)/C=C(\C)[C@@H](O)[C@@H](OC)C(=O)[C@H](C)C[C@H](C)/C=C/C=C/C=C(\C)[C@@H](OC)C[C@@H]3CC[C@@H](C)[C@@](O)(O3)C(=O)C(=O)N3CCCC[C@H]3C(=O)O2)C[C@H]1OC [Example 2B, 42-O-Ethoxycarbonylrapamycin]
- IC50 [1, 9]: 0.6 nM

SMILES: CO[C@H]1C[C@@H]2CC[C@@H](C)[C@@](O)(O2)C(=O)C(=O)N2CCCC[C@H]2C(=O)O[C@H]([C@H](C)C[C@@H]2CC[C@@H](OC(=O)Oc3ccccc3)[C@H](OC)C2)CC(=O)[C@H](C)/C=C(\C)[C@@H](O)[C@@H](OC)C(=O)[C@H](C)C[C@H](C)/C=C/C=C/C=C/1C [Example 3, 42-O-(Phenyloxycarbonyl)rapamycin]
- IC50 [1, 9]: 0.34 nM

SMILES: CO[C@H]1C[C@@H]2CC[C@@H](C)[C@@](O)(O2)C(=O)C(=O)N2CCCC[C@H]2C(=O)O[C@H]([C@H](C)C[C@@H]2CC[C@@H](OC(=O)Oc3ccc([N+](=O)[O-])cc3)[C@H](OC)C2)CC(=O)[C@H](C)/C=C(\C)[C@@H](O)[C@@H](OC)C(=O)[C@H](C)C[C@H](C)/C=C/C=C/C=C/1C [Example 4A, 42-O-(4-Nitrophenyloxycarbonyl)rapamycin]
- IC50 [1, 9]: 1 nM

SMILES: CO[C@H]1C[C@@H]2CC[C@@H](C)[C@@](O)(O2)C(=O)C(=O)N2CCCC[C@H]2C(=O)O[C@H]([C@H](C)C[C@@H]2CC[C@@H](OC(=O)Oc3ccc([N+](=O)[O-])cc3)[C@H](OC)C2)CC(=O)[C@H](C)/C=C(\C)[C@@H](OC(=O)Oc2ccc([N+](=O)[O-])cc2)[C@@H](OC)C(=O)[C@H](C)C[C@H](C)/C=C/C=C/C=C/1C [Example 4B, 31, 42-O-Bis(4-Nitrophenyloxycarbonyl)rapamycin]
- IC50 ([1]; Mus musculus, Lymphocyte, 72 h, read-out: IC50 Ester (IC50 data for LAF assay)): 23 nM

SMILES: C=CCOC(=O)O[C@@H]1CC[C@@H](C[C@@H](C)[C@@H]2CC(=O)[C@H](C)/C=C(\C)[C@@H](O)[C@@H](OC)C(=O)[C@H](C)C[C@H](C)/C=C/C=C/C=C(\C)[C@@H](OC)C[C@@H]3CC[C@@H](C)[C@@](O)(O3)C(=O)C(=O)N3CCCC[C@H]3C(=O)O2)C[C@H]1OC [Example 5, 42-O-(Prop-2-enyloxycarbonyl)rapamycin]
- IC50 [1, 9]: 1.6 nM

SMILES: CO[C@H]1C[C@@H]2CC[C@@H](C)[C@@](O)(O2)C(=O)C(=O)N2CCCC[C@H]2C(=O)O[C@H]([C@H](C)C[C@@H]2CC[C@@H](OC(=O)OCc3ccccc3)[C@H](OC)C2)CC(=O)[C@H](C)/C=C(\C)[C@@H](O)[C@@H](OC)C(=O)[C@H](C)C[C@H](C)/C=C/C=C/C=C/1C [Example 6, 42-O-(Benzyloxycarbonyl)rapamycin]
- IC50 [1, 9]: 0.32 nM

SMILES: C=CC[C@@H]1/C=C(\C)C[C@H](C)C[C@H](OC)[C@H]2O[C@@](O)(C(=O)C(=O)N3CCCC[C@H]3C(=O)O[C@H](/C(C)=C/[C@@H]3CC[C@@H](O)[C@H](OC)C3)[C@H](C)[C@@H](O)CC1=O)[C@H](C)C[C@@H]2OC [FK-506]
- effectiveness as immunosuppressive agent ([2]; useful in preventing transplant rejection): effective as immunosuppressive agents

SMILES: CO[C@H]1C[C@@H]2CC[C@@H](C)[C@@](O)(O2)C(=O)C(=O)N2CCCC[C@H]2C(=O)O[C@H]([C@H](C)C[C@@H]2CC[C@@H](O)[C@H](OC)C2)CC(=O)[C@H](C)/C=C(\C)[C@@H](O)[C@@H](OC)C(=O)[C@H](C)C[C@H](C)/C=C/C=C/C=C/1C [Rapamycin]
- IC50 ([1]; Table I, Rapamycin, comparative result beside each example ester, read-out: IC50 Rapamycin (IC50 data for LAF assay)): 3.9 nM and 3.8 nM and 6.3 nM
- antitumor activity [3]: antitumor activity
- antifungal activity in vivo [4]: antifungal activity, particularly against Candida albicans
- inhibition of formation of IgE-like antibodies [5]: effectively inhibited
- efficacy in adjuvant arthritis model [6]: effective
- antifungal activity in vitro [7]: antifungal activity, particularly against Candida albicans
- efficacy in experimental allergic encephalomyelitis model [8]: effective
- inhibition of transplant rejection ([2]; in vivo): effective in inhibiting transplant rejection
